One experiment concerns prostate line LNCap. Kind of experiment: In vitro cell culture growth assay (MTS), LNCap. It counts as cell-based, human. As to conditions: LNCap cells, three days after drug treatment.
The next experiment concerns the target PI3K (Homo sapiens, UniProt P42336). Kind of experiment: Fluorescence polarization assay for PI3K.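 Note: PI3K kinase reaction on PIP2 with ATP, 30-60 min, product sensed by GST-GRP with red probe in fluorescence polarization (mP), controls without enzyme and at zero time.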 The class given is biochemical. As to conditions: PI3Kα; read-out: PI3Kα IC50. Background: In fluorescence polarisation assays a small probe gives low polarisation when free and higher when bound to something large.
The subject of another experiment is breast line MDA468. Description: In vitro cell culture growth assay (MTS), MDA468. It counts as cell-based, human. The conditions noted are these: MDA468 cells, three days after drug treatment. The method, boiled down:
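Cells were plated and, one day later, exposed to inhibitors for three days; viable cell density was then measured by metabolic conversion of MTS dye, read as absorbance at 490 nm. Growth is expressed as percent of vehicle-treated control cells on the same plate.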

Chain of PI3K (P42336 whole entry): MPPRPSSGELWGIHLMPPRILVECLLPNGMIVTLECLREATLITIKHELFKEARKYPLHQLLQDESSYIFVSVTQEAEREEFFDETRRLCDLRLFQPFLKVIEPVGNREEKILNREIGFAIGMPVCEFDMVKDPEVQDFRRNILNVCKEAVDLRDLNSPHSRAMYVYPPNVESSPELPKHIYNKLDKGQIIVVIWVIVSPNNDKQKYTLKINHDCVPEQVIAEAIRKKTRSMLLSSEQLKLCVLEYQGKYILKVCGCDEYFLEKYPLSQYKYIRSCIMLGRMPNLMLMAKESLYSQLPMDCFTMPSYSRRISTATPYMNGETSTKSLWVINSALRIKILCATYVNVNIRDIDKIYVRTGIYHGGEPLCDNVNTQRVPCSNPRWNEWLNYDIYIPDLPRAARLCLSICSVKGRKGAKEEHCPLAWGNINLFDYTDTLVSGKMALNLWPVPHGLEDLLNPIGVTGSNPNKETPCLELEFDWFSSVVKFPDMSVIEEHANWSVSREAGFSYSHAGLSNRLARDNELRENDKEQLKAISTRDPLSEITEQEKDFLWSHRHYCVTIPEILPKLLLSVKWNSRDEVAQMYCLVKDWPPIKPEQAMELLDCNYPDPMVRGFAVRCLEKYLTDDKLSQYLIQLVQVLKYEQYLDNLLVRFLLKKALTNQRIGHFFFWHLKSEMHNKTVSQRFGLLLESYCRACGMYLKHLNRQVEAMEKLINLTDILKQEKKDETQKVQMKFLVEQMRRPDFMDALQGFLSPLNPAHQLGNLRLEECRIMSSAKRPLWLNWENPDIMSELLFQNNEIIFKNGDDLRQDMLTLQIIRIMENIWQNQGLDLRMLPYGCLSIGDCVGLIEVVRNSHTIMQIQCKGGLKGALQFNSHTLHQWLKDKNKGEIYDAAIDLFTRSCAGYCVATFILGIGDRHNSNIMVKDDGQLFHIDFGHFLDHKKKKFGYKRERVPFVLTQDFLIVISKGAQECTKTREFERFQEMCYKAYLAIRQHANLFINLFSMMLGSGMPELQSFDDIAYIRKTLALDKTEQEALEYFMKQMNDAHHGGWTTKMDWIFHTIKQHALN
Chain of PI3K (P27986 whole entry partner): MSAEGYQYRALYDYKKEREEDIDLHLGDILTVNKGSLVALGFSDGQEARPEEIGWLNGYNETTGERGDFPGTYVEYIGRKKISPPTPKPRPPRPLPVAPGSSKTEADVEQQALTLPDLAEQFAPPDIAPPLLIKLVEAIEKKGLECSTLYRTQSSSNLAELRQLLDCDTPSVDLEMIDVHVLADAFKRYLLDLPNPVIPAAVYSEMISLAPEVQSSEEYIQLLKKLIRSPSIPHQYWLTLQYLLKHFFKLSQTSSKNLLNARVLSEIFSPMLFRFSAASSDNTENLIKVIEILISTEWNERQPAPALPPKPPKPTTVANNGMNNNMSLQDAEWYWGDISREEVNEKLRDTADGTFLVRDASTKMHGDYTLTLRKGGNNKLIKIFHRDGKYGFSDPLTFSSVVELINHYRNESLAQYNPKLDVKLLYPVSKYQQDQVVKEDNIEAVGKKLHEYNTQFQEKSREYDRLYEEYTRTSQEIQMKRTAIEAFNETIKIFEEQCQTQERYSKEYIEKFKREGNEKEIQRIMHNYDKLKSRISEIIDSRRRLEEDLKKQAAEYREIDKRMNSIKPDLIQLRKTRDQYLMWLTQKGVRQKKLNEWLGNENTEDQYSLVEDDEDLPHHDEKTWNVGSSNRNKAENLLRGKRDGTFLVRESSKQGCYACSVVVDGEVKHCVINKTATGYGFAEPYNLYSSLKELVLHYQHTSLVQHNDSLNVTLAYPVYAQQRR

Usually IC50 stands for the concentration that inhibits the measured activity by half. Turning to `O=C(NCCc1ccccc1)Nc1ccc(-c2nc(N3CCOCC3)c3cnn(C4CCN(Cc5ccccc5)CC4)c3n2)cc1` [Compound 505, 1-{4-[1-(1-benzylpiperidin-4-yl)-4-morpholin-4-yl-1H-pyrazolo[3,4-d]pyrimidin-6-yl]phenyl}-3-(2-phenylethyl)urea], the IC50 in the experiment with prostate line LNCap (Homo sapiens, LNCaP, 72 h) is 1000 nM; at PI3K it was 2140 nM; with breast line MDA468 (Homo sapiens, 72 h) it was 20000 nM.
On the same counts, the results for `COC(=O)N1CCC(n2ncc3c(N4CCOCC4)nc(-c4ccc(NC(=O)OCCN(C)C)cc4)nc32)CC1` [Compound 904, methyl 4-{6-[4-({[2-(dimethylamino)ethoxy]carbonyl}amino)phenyl]-4-morpholin-4-yl-1H-pyrazolo[3,4-d]pyrimidin-1-yl}piperidine-1-carboxylate] are 2300 nM, 645 nM and 7800 nM.
`CC(C)(C)OC(=O)N1CCC(n2ncc3c(N4CCOCC4)nc(-c4ccc(NC(=O)Nc5nccs5)cc4)nc32)CC1` [Compound 884, tert-butyl 4-(4-morpholin-4-yl-6-{4-[(1,3-thiazol-2-ylcarbamoyl)amino]phenyl}-1H-pyrazolo[3,4-d]pyrimidin-1-yl)piperidine-1-carboxylate]: the IC50 is 260 nM in the experiment with prostate line LNCap (Homo sapiens, LNCaP, 72 h); 264 nM at PI3K; 1600 nM in the experiment with breast line MDA468 (Homo sapiens, 72 h).
Take `c1ccc(-n2ncc3c(N4CCOCC4)nc(-c4ccc(CN5CCOCC5)cc4)nc32)cc1` [Compound 130]: the IC50 with prostate line LNCap (Homo sapiens, LNCaP, 72 h) was 60000 nM; on PI3K, 822 nM; in the experiment on breast line MDA468 (Homo sapiens, 72 h), 60000 nM.
As for `O=C(NCCF)Nc1ccc(-c2nc(N3CCOCC3)c3cnn(-c4ccccc4)c3n2)cc1` [Example 294, 1-(2-fluoroethyl)-3-[4-(4-morpholin-4-yl-1-phenyl-1H-pyrazolo[3,4-d]pyrimidin-6-yl)phenyl]urea], the IC50 in the experiment with prostate line LNCap (Homo sapiens, LNCaP, 72 h) worked out at 190 nM; at PI3K, 251 nM; in the experiment on breast line MDA468 (Homo sapiens, 72 h), 900 nM.
For `N#CN=C(N)Nc1ccc(-c2nc(N3CCOCC3)c3cnn(C4CCN(C(=O)c5cccnc5)CC4)c3n2)cc1` [Example 411, 2-cyano-1-(4-{4-morpholin-4-yl-1-[1-(pyridin-3-ylcarbonyl)piperidin-4-yl]-1H-pyrazolo[3,4-d]pyrimidin-6-yl}phenyl)guanidine] the same measures were 20000 nM, 344 nM and 12000 nM.
As for `CCOC(=O)N1CCC(n2ncc3c(N4CCOC[C@H]4C)nc(-c4ccc(NC(=O)Nc5cccnc5)cc4)nc32)CC1` [Compound 892, ethyl 4-(4-[(3R)-3-methylmorpholin-4-yl]-6-{4-[(pyridin-3-ylcarbamoyl)amino]phenyl}-1H-pyrazolo[3,4-d]pyrimidin-1-yl)piperidine-1-carboxylate], the IC50 with prostate line LNCap (Homo sapiens, LNCaP, 72 h) came to 0.8 nM; on PI3K, 453 nM; in the experiment on breast line MDA468 (Homo sapiens, 72 h), 70 nM.
As for `CNC(=O)Nc1ccc(-c2nc(N3CCOCC3)c3cnn(C4CCN(C(=O)c5cccc(Cl)c5)CC4)c3n2)cc1` [Compound 604, 1-(4-{1-[1-(3-chlorobenzoyl)piperidin-4-yl]-4-morpholin-4-yl-1H-pyrazolo[3,4-d]pyrimidin-6-yl}phenyl)-3-methylurea], the IC50 is under 27 nM in the experiment with prostate line LNCap (Homo sapiens, LNCaP, 72 h); 53 nM on PI3K; 50 nM in the experiment on breast line MDA468 (Homo sapiens, 72 h).
As for `CONC(=O)Nc1ccc(-c2nc(N3CCOCC3)c3cnn(-c4ccccc4)c3n2)cc1` [Compound 295, 1-methoxy-3-[4-(4-morpholin-4-yl-1-phenyl-1H-pyrazolo[3,4-d]pyrimidin-6-yl)phenyl]urea], the IC50 in the experiment on prostate line LNCap (Homo sapiens, LNCaP, 72 h) amounted to 1800 nM; on PI3K it was 404 nM; in the experiment with breast line MDA468 (Homo sapiens, 72 h), 5000 nM.
On the same counts, the results for `O=C(c1cccnc1Cl)N1CCC(n2ncc3c(N4CCOCC4)nc(-c4ccc5[nH]ccc5c4)nc32)CC1` [Example 195, 1-{1-[(2-chloropyridin-3-yl)carbonyl]piperidin-4-yl}-6-(1H-indol-5-yl)-4-morpholin-4-yl-1H-pyrazolo[3,4-d]pyrimidine] are 450 nM, 1690 nM and 1000 nM.
For `CN(C)CCCn1ncc2c(N3CCOCC3)nc(-c3ccc4[nH]ccc4c3)nc21` [Compound 160], the IC50 was determined as 2800 nM in the experiment on prostate line LNCap (Homo sapiens, LNCaP, 72 h); 6000 nM on PI3K; 15000 nM in the experiment on breast line MDA468 (Homo sapiens, 72 h).
`COc1ncccc1CN1CCC(n2ncc3c(N4CCOCC4)nc(-c4ccc5[nH]ccc5c4)nc32)CC1` [Compound 177]: the half-maximal inhibitory concentration (IC50) in the experiment on prostate line LNCap (Homo sapiens, LNCaP, 72 h) stood at 1300 nM; on PI3K, 885 nM; in the experiment on breast line MDA468 (Homo sapiens, 72 h) it was 3100 nM.
Turning to `CC(=O)NCc1cccc(-c2nc(N3CCOCC3)c3cnn(-c4ccccc4)c3n2)c1` [Compound 145], the IC50 with prostate line LNCap (Homo sapiens, LNCaP, 72 h) was found to be 5500 nM; on PI3K it was 583 nM; in the experiment with breast line MDA468 (Homo sapiens, 72 h), 21000 nM.
Take `CNC(=O)Nc1ccc(-c2nc(N3CCOCC3)c3cnn(C4CCN(C(=O)c5cccnc5Cl)CC4)c3n2)cc1` [Compound 669, 1-[4-(1-{1-[(2-chloropyridin-3-yl)carbonyl]piperidin-4-yl}-4-morpholin-4-yl-1H-pyrazolo[3,4-d]pyrimidin-6-yl)phenyl]-3-methylurea]: the IC50 with prostate line LNCap turned out to be 80 nM; at PI3K, 100 nM; with breast line MDA468, 460 nM.
For `CNC(=O)Nc1ccc(-c2nc(N3CCOCC3)c3cnn(C4CCN(CC(F)(F)F)CC4)c3n2)cc1` [Compound 714, 1-methyl-3-(4-{4-morpholin-4-yl-1-[1-(2,2,2-trifluoroethyl)piperidin-4-yl]-1H-pyrazolo[3,4-d]pyrimidin-6-yl}phenyl)urea] the same measures were 56 nM, 186 nM and 320 nM.
On to `CC(C)OC(=O)Nc1ccc(-c2nc(N3CCOCC3)c3cnn(C4CCN(Cc5ccccc5)CC4)c3n2)cc1` [Compound 208], for which the IC50 with prostate line LNCap (Homo sapiens, LNCaP, 72 h) was found to be 5800 nM; at PI3K, 3790 nM; in the experiment on breast line MDA468 (Homo sapiens, 72 h), 11000 nM.
Take `O=C(NCCF)Nc1ccc(-c2nc(N3CCOCC3)c3cnn(C4CCN(Cc5cccnc5)CC4)c3n2)cc1` [Compound 560, 1-(2-fluoroethyl)-3-(4-{4-morpholin-4-yl-1-[1-(pyridin-3-ylmethyl)piperidin-4-yl]-1H-pyrazolo[3,4-d]pyrimidin-6-yl}phenyl)urea]: the IC50 in the experiment with prostate line LNCap (Homo sapiens, LNCaP, 72 h) is under 27 nM; on PI3K, 338 nM; in the experiment on breast line MDA468 (Homo sapiens, 72 h), 27 nM.
For `COC(=O)Nc1ccc(-c2nc(N3CCOCC3)c3cnn(C4CCN(Cc5ccc(Cl)cc5)CC4)c3n2)cc1` [Compound 451, methyl (4-{1-[1-(4-chlorobenzyl)piperidin-4-yl]-4-morpholin-4-yl-1H-pyrazolo[3,4-d]pyrimidin-6-yl}phenyl)carbamate] the same measures were 2000 nM, 389 nM and 9000 nM.
On the same counts, the results for `CNC(=O)Nc1ccc(-c2nc(N3CCOCC3)c3cnn(C4CCN(CCCCO)CC4)c3n2)cc1` [Compound 743, 1-(4-{1-[1-(4-hydroxybutyl)piperidin-4-yl]-4-morpholin-4-yl-1H-pyrazolo[3,4-d]pyrimidin-6-yl}phenyl)-3-methylurea] are 1800 nM, 212 nM and 2200 nM.
For `CNC(=O)Nc1ccc(-c2nc(N3CCOCC3)c3cnn(C4CCN(Cc5ccccc5C)CC4)c3n2)cc1` [Example 429, 1-methyl-3-(4-{1-[1-(2-methylbenzyl)piperidin-4-yl]-4-morpholin-4-yl-1H-pyrazolo[3,4-d]pyrimidin-6-yl}phenyl)urea] the same measures were 40 nM, 51 nM and 200 nM.
With `CCNC(=O)Nc1ccc(-c2nc(N3CCOCC3)c3cnn(C4CCN(C(=O)c5cccnc5)CC4)c3n2)cc1` [Example 307, 1-ethyl-3-(4-{4-morpholin-4-yl-1-[1-(pyridin-3-ylcarbonyl)piperidin-4-yl]-1H-pyrazolo[3,4-d]pyrimidin-6-yl}phenyl)urea], the IC50 in the experiment with prostate line LNCap (Homo sapiens, LNCaP, 72 h) is 60 nM; on PI3K it was 434 nM; with breast line MDA468 (Homo sapiens, 72 h) it was 200 nM.
As to `CNC(=O)Nc1ccc(-c2nc(N3CCOCC3)c3cnn(C4CCN(Cc5ccccc5C)CC4)c3n2)cc1` [Compound 673, 1-methyl-3-(4-{1-[1-(2-methylbenzyl)piperidin-4-yl]-4-morpholin-4-yl-1H-pyrazolo[3,4-d]pyrimidin-6-yl}phenyl)urea], the IC50 in the experiment on prostate line LNCap worked out at 40 nM; on PI3K, 50 nM; with breast line MDA468 it was 180 nM.
On the same counts, the results for `CNC(=O)Nc1ccc(-c2nc(N3CCOCC3)c3cnn(C4CCN(Cc5cnccc5OC)CC4)c3n2)cc1` [Compound 636, 1-[4-(1-{1-[(4-methoxypyridin-3-yl)methyl]piperidin-4-yl}-4-morpholin-4-yl-1H-pyrazolo[3,4-d]pyrimidin-6-yl)phenyl]-3-methylurea] are 70 nM, 82 nM and 220 nM.
Regarding `NC(=O)CN1CCC(n2ncc3c(N4CCOCC4)nc(-c4ccc5[nH]ccc5c4)nc32)CC1` [Compound 245, 2-{4-[6-(1H-indol-5-yl)-4-morpholin-4-yl-1H-pyrazolo[3,4-d]pyrimidin-1-yl]piperidin-1-yl}acetamide], the IC50 with prostate line LNCap (Homo sapiens, LNCaP, 72 h) was found to be 800 nM; on PI3K, 2660 nM; with breast line MDA468 (Homo sapiens, 72 h) it was 2800 nM.
In the case of `c1ccc(-n2ncc3c(N4CCOCC4)nc(-c4ccc5occc5c4)nc32)cc1` [Compound 117], the IC50 with prostate line LNCap (Homo sapiens, LNCaP, 72 h) is 60000 nM; on PI3K it was 699 nM; in the experiment on breast line MDA468 (Homo sapiens, 72 h) it was 60000 nM.
As to `CNC(=O)Nc1ccc(-c2nc(N3CCOCC3)c3cnn(C4CCN(C(=O)NC)CC4)c3n2)cc1` [Example 477, N-methyl-4-(6-{4-[(methylcarbamoyl)amino]phenyl}-4-morpholin-4-yl-1H-pyrazolo[3,4-d]pyrimidin-1-yl)piperidine-1-carboxamide], the IC50 with prostate line LNCap (Homo sapiens, LNCaP, 72 h) came to 2200 nM; at PI3K, 149 nM; with breast line MDA468 (Homo sapiens, 72 h) it was 1800 nM.

The values above are taken from patent US20080234262A1 (Wyeth, priority 2007, published 2008).
